Results taken from patent US6875778B2, “Alkylene-tethered bis-nitroiminoimidazolidines, process for preparing the same, and insecticides containing the same” (Gifu University, priority 2002, dated 2005).

System: common cockroach
Test: insecticidal activity against the common cockroach (abdominal injection, minimum lethal dose)
Assay type: in vivo
Details: MLD = minimum lethal dose (moles/insect) at which two of three male adult common cockroaches became paralyzed or died; 1 to 10 μl of 1% by weight methanol solution injected into abdomen
Description: The insecticidal activity against the common cockroach was tested for the compounds of Examples 1 to 14 and the compound of Comparative Example 1. Methanol solutions containing 1% by weight of each compound were prepared. 1 to 10 μl of the methanol solution were injected into the abdomens of 3 male adult common cockroaches. The concentration at which two of the three adult insects became paralyzed or died, namely the minimum lethal dose (MLD: moles/insect) was then investigated.

SMILES	log (1/MLD)
O=[N+]([O-])N=C1N(CCN2CCN(Cc3ccc(Cl)nc3)C2=N[N+](=O)[O-])CCN1Cc1ccc(Cl)nc1 [Comp. Exp. 1, 1,2-bis[(6-chloronicotinyl)-2-nitroiminoimidazolidin-3-yl]ethane, reference compound]	7.38
O=[N+]([O-])N=C1N(CCCN2CCN(Cc3ccc(Cl)nc3)C2=N[N+](=O)[O-])CCN1Cc1ccc(Cl)nc1 [Exp. 1, 1,3-bis[(6-chloronicotinyl)-2-nitroiminoimidazolidin-3-yl]propane]	8.31
O=[N+]([O-])N=C1N(CCCCN2CCN(Cc3ccc(Cl)nc3)C2=N[N+](=O)[O-])CCN1Cc1ccc(Cl)nc1 [Exp. 2, 1,4-bis[(6-chloronicotinyl)-2-nitroiminoimidazolidin-3-yl]butane]	7.97
O=[N+]([O-])N=C1N(CCCCCCN2CCN(Cc3ccc(Cl)nc3)C2=N[N+](=O)[O-])CCN1Cc1ccc(Cl)nc1 [Exp. 4, 1,6-bis[(6-chloronicotinyl)-2-nitroiminoimidazolidin-3-yl]hexane]	8.65
O=[N+]([O-])N=C1N(CCCCCCCN2CCN(Cc3ccc(Cl)nc3)C2=N[N+](=O)[O-])CCN1Cc1ccc(Cl)nc1 [Exp. 5, 1,7-bis[(6-chloronicotinyl)-2-nitroiminoimidazolidin-3-yl]heptane]	8.55
O=[N+]([O-])N=C1N(CCCCCCCCN2CCN(Cc3ccc(Cl)nc3)C2=N[N+](=O)[O-])CCN1Cc1ccc(Cl)nc1 [Exp. 6, 1,8-bis[(6-chloronicotinyl)-2-nitroiminoimidazolidin-3-yl]octane]	8.35
O=[N+]([O-])N=C1N(CCCCCCCCCN2CCN(Cc3ccc(Cl)nc3)C2=N[N+](=O)[O-])CCN1Cc1ccc(Cl)nc1 [Exp. 7, 1,9-bis[(6-chloronicotinyl)-2-nitroiminoimidazolidin-3-yl]nonane]	8.56
O=[N+]([O-])N=C1N(CCCCCCCCCCN2CCN(Cc3ccc(Cl)nc3)C2=N[N+](=O)[O-])CCN1Cc1ccc(Cl)nc1 [Exp. 8, 1,10-bis[(6-chloronicotinyl)-2-nitroiminoimidazolidin-3-yl]decane]	8.43
O=[N+]([O-])N=C1N(Cc2ccc(Cl)nc2)CCN1Cc1cccc(CN2CCN(Cc3ccc(Cl)nc3)C2=N[N+](=O)[O-])c1 [Exp. 12, 1,3-bis[(6-chloronicotinyl)-2-nitroiminoimidazolidin-3-yl]methylbenzene]	7.71
O=[N+]([O-])N=C1N(Cc2ccc(CN3CCN(Cc4ccc(Cl)nc4)C3=N[N+](=O)[O-])cc2)CCN1Cc1ccc(Cl)nc1 [Exp. 13, 1,4-bis[(6-chloronicotinyl)-2-nitroiminoimidazolidin-3-yl]methylbenzene]	7.57
O=[N+]([O-])N=C1N(CCCCCCN2CCN(Cc3cnc(Cl)s3)C2=N[N+](=O)[O-])CCN1Cc1cnc(Cl)s1 [Exp. 14, 1,6-bis[1-(2-chloro-5-thiazolylmethyl)-2-nitroiminoimidazolidin-3-yl]hexane]	7.56
